Experimental data reported in ChEMBL document CHEMBL2057184, “Essential structure of opioid κ receptor agonist nalfurafine for binding to the κ receptor 2: synthesis of decahydro(iminoethano)phenanthrene derivatives and their pharmacologies” (Bioorg Med Chem Lett, 2012).

Legend:
[1] = molecular target: Delta-type opioid receptor (Mus musculus, UniProt P32300); assay: Displacement of [3H]DPDPE from delta opioid receptor in mouse cerebellum
[2] = molecular target: Kappa-type opioid receptor (Cavia porcellus, UniProt P41144); assay: Displacement of [3H]U-69,593 from kappa opioid receptor in guinea pig cerebellum
Mu-type opioid receptor = Mu-type opioid receptor (Mus musculus, UniProt P42866); assay: Displacement of [3H]DAMGO from mu opioid receptor in mouse cerebellum
[3] = Selectivity ratio of Ki for mu opioid receptor in mouse cerebellum to Ki for kappa opioid receptor in guinea pig cerebellum; assay type: tissue-based
[4] = Selectivity ratio of Ki for delta opioid receptor in mouse cerebellum to Ki for kappa opioid receptor in guinea pig cerebellum; assay type: tissue-based

Chain of Kappa-type opioid receptor (P41144 whole entry): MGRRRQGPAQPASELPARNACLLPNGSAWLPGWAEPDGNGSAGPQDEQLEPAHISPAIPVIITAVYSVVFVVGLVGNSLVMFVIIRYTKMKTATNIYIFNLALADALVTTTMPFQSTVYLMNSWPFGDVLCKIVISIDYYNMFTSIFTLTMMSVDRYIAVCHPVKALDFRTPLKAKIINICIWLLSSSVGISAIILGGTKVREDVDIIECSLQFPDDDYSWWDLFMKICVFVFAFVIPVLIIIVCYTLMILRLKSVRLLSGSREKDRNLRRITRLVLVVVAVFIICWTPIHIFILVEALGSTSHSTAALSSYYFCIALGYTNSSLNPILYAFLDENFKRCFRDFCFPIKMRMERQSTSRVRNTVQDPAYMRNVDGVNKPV
Chain of Mu-type opioid receptor (P42866 whole entry): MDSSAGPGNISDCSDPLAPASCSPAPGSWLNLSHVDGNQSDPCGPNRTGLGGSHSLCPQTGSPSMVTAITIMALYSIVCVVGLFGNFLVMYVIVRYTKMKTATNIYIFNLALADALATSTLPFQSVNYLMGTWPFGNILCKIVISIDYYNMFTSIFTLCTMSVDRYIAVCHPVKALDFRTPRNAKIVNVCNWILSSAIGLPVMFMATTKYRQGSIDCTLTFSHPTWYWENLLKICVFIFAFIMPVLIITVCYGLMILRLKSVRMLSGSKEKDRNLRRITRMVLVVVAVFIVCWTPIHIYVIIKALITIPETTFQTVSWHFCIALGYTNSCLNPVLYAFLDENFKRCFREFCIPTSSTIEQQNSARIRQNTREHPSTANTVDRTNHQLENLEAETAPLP
Chain of Delta-type opioid receptor (P32300 whole entry): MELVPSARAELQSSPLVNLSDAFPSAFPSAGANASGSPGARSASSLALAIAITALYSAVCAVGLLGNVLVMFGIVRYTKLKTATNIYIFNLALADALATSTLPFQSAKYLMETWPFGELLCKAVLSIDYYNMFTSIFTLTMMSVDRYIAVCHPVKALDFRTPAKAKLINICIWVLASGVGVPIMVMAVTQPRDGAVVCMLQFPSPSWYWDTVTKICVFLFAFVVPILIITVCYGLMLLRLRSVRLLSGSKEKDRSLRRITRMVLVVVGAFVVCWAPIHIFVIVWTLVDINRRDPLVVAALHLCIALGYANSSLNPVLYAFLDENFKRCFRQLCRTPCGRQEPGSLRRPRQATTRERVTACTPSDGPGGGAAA

Row | SMILES | Ki [1] | Ki [2] | Ki (Mu-type opioid receptor) | Ratio Ki [3] | Ratio Ki [4]
1 | CN(C(=O)/C=C/c1ccoc1)[C@@H]1CC[C@@]2(O)[C@H]3Cc4cccc5c4[C@@]2(CCN3CC2CC2)[C@H]1O5 | > 1000 nM | 2.82 nM | 169 nM | 59.8 | 
2 | O=C1CC[C@@]2(O)[C@H]3CC4=C(CCCC4)[C@@]2(CCN3CC2CC2)C1 | 939 nM | 787 nM | 391 nM | 0.5 | 1.19
3 | CN(C(=O)/C=C/c1ccoc1)[C@@H]1CC[C@H]2[C@H]3CC4=C(CCCC4)[C@@]2(CCN3CC2CC2)C1 | 204 nM | 12.7 nM | 24.6 nM | 1.94 | 16.1
4 | CN(C(=O)/C=C/c1ccoc1)[C@@H]1CC[C@@]2(O)[C@H]3CC4=C(CCCC4)[C@@]2(CCN3CC2CC2)C1 | 308 nM | 5.64 nM | 83.2 nM | 14.7 | 54.5
5 | CN(C(=O)/C=C/c1ccoc1)[C@@H]1CC[C@H]2CN(CC3CC3)CC[C@@H]2C1 | > 100000 nM | 19100 nM | > 100000 nM |  | 
6 | CN(C(=O)/C=C/c1ccoc1)[C@@H]1CC[C@@]2(O)[C@H]3Cc4ccc(O)cc4[C@@]2(CCN3CC2CC2)C1 | 2.09 nM | 0.18 nM | 0.43 nM | 2.42 | 11.8
7 | CN(C(=O)/C=C/c1ccoc1)[C@@H]1CC[C@H]2[C@H]3Cc4ccc(O)c5c4[C@@]2(CCN3CC2CC2)[C@H]1O5 | 8.82 nM | 0.35 nM | 0.51 nM | 1.47 | 25.3
8 | CN[C@@H]1CC[C@@]2(O)[C@H]3CC4=C(CCCC4)[C@@]2(CCN3CC2CC2)C1 | > 1000 nM | 352 nM | > 1000 nM |  | 
